In US20070010670A1, “Nitrogen-containing fused ring compounds and use thereof” (Japan Tobacco Inc., priority 2004, published 2007):

What was measured:
URAT1 [1] = molecular target: T1, URAT1 (Homo sapiens, UniProt Q96S37); experiment: Uric acid transport inhibitory test using human URAT1-expressing cells; format: cell-based; set-up: Human URAT1 full length cDNA was subcloned to expression vector pcDNA3.1; expressed in transfected cells; host or cells: HEK293 cells (pcDNA3.1, geneticin-selected); settings: human URAT1 expressing HEK293 cells, 14C-labeled uric acid uptake 5 min, room temperature; read-out: hURAT1 (IC50, concentration necessary for inhibiting the uric acid transport rate by 50%)
T1 sequence (Q96S37 1-553): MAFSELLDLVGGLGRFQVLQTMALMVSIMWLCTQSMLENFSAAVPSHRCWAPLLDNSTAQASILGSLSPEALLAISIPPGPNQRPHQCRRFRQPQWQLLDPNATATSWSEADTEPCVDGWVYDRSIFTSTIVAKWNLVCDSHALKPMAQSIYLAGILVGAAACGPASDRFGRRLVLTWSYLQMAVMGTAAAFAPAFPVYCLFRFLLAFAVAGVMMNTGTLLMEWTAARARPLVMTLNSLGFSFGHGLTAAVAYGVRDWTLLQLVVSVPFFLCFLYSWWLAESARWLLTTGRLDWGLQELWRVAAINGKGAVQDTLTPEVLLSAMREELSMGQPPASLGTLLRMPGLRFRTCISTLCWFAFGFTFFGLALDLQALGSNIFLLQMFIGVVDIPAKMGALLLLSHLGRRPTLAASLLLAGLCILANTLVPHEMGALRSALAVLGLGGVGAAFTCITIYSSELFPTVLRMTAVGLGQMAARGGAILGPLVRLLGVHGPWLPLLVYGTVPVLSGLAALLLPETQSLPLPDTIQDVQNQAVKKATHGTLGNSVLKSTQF
From the text: Human URAT1 full length cDNA was subcloned to expression vector pcDNA3.1 and human URAT1 gene was transfected into human embryonic kidney derived cell line (HEK293 cells) by liposome method using Lipofectamine2000. Simultaneously, HEK293 cells transfected with expression vector pcDNA3.1 alone (hereinafter mock cells) were also produced. HEK293 cells expressing human URAT1 gene or mock cells were selected with geneticin resistance as an index. The functional expression of human URAT1 gene was confirmed by a method similar to the following method, using transport of uric acid labeled with ^14C into the cells as an index.
Human URAT1 expressing HEK293 cells or mock cells were cultured in Dulbecco's modified Eagle's MEM medium (high glucose) containing 10% fetal bovine serum, 0.5 mg/mL geneticin sulfate, 100 units/mL penicillin and 100 μg/mL streptomycin under the conditions of 37° C. and 5% CO2 in an incubator. The cells were plated in a 96 well plate (poly-D-Lysine coated) at 1×10^5 cells/well and the following uric acid transport inhibitory test was performed 24 hr later. This test was performed at room temperature.
After the medium was removed by aspiration from each well, the cells were washed once with Hank's Balanced Salt Solution (HBSS) and preincubated with HBSS ([…]) for 5 min. HBSS was aspirated and an assay buffer (wherein NaCl in the above-mentioned HBSS had been substituted with Na-gluconate) containing various concentrations of the Example compound and a radioactive ligand (uric acid labeled with 14C; final concentration […]) was added to each well at […] and an uptake reaction was carried out for 5 min. After the reaction, the cells were washed twice with ice-cold HBSS ([…]), and Microscin ti TM 20 (PerkinElmer) was added at […]. The cells were lysed by stirring and the radioactivity of each well was measured in a liquid scintillation counter (TOP COUNT, Packard).
The uric acid transport rate (%) of the Example compound at each concentration was calculated relative to the radioactivity (difference in radioactivity between human URAT1 expressing HEK293 cells and mock cells without addition of Example compound (DMSO addition)) showing URAT1 specific uric acid transport as 100%, and the concentration (IC50) of the Example compound necessary for inhibiting the uric acid transport rate by 50% was determined. In Table-Table , “+++” means IC50 value of less than 100 nM, “++” means IC50 value of 100 nM to less than 1000 nM, and “+” means IC50 value of 1000 nM to less than 3000 nM.

CYP2C9 = molecular target: T2, CYP2C9 (Homo sapiens, UniProt P11712); experiment: CYP inhibitory test using human liver microsome; format: in vitro ADME; settings: model substrate diclofenac, 37° C. 10 min, read-out: CYP2C9 inhibition IC50
T2 construct: Human liver microsome (20 mg protein/mL, 5 μL, Xenotech LLC, purchased from Lenexa KS); tissue Xenotech LLC; host or cells: human liver microsome
Method in brief: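 Pooled human liver microsomes in 100 mM potassium phosphate pH 7.4 with NADPH-regenerating system, preincubated with compound 5 min at 37 °C; diclofenac as CYP2C9 substrate (2 mM stock), 10 min at 37 °C. Metabolite quantified by LC/MS/MS; IC50 relative to DMSO-only activity as 100%.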

CYP2C8 = molecular target: T3, CYP2C8 (Homo sapiens, UniProt P10632); settings: cited from earlier work
T3 sequence (P10632 1-490): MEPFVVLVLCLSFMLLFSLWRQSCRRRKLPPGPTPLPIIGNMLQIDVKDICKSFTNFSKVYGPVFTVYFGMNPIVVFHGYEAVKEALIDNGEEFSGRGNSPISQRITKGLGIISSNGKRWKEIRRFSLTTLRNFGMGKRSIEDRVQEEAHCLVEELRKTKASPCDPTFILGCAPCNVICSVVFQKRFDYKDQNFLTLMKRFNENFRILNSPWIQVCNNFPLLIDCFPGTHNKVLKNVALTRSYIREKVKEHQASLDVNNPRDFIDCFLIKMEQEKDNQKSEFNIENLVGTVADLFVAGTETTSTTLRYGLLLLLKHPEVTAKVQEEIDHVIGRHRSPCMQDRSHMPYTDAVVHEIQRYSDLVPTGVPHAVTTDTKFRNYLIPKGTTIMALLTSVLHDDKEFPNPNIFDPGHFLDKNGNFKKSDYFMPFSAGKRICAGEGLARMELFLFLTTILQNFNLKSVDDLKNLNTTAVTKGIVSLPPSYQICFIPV

URAT1 [2] = molecular target: T1, URAT1; set-up: host or cells: Xenopus laevis oocyte expression system; settings: Xenopus laevis oocyte expression system; cited from earlier work
CYP2C19 = CYP2C19 (Homo sapiens, UniProt P33261); settings: cited from earlier work
CYP3A4 = CYP3A4 (Homo sapiens, UniProt P08684); settings: cited from earlier work
Sequence of CYP3A4 (P08684 whole entry): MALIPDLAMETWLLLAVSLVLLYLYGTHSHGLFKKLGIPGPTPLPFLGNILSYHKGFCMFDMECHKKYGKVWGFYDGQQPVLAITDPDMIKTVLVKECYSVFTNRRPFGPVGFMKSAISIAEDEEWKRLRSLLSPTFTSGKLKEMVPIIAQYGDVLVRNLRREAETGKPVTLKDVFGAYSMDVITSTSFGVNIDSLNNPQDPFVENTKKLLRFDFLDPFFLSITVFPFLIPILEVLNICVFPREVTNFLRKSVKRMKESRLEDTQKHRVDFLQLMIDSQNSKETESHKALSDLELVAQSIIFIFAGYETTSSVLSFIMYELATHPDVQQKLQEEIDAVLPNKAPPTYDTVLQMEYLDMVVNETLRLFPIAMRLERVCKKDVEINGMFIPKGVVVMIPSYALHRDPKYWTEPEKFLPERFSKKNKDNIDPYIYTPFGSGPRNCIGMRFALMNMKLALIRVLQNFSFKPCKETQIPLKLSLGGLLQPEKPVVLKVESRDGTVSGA

T2 sequence (P11712 whole entry): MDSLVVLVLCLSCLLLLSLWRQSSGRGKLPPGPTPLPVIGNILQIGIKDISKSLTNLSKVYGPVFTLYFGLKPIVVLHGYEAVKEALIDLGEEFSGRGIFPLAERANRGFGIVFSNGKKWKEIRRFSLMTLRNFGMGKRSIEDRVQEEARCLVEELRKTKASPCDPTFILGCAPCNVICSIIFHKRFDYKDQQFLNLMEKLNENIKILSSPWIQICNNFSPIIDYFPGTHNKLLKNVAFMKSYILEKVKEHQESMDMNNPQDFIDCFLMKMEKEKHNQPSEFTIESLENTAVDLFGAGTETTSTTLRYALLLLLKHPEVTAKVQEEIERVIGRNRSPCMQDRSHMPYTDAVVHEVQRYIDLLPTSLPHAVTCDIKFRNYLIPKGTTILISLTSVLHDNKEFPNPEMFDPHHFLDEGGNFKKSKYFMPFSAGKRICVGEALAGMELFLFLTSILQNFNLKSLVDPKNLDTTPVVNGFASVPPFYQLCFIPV
Sequence of CYP2C19 (P33261 whole entry): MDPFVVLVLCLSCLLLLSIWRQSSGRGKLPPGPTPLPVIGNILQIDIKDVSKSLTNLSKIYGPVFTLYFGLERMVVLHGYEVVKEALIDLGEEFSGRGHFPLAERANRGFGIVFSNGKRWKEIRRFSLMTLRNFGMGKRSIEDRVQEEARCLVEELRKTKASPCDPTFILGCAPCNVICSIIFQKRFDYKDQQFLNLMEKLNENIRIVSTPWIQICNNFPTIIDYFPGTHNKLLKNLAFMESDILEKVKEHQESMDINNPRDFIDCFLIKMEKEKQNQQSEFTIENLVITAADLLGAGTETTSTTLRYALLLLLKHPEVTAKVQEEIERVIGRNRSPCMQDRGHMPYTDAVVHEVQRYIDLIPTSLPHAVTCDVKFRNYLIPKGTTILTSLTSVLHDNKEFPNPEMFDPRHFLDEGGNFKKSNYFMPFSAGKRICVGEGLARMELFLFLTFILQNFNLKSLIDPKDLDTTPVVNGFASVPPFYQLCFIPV

CC1COc2ccccc2N1C(=O)c1cc(Cl)c(O)c(Cl)c1 (stereo not drawn) [Example 93, (3,5-dichloro-4-hydroxyphenyl)-(3-methyl-2,3-dihydrobenzo[1,4]oxazin-4-yl)-methanone]
IC50 (URAT1 [1]): 0.1 to 1 µM
IC50 (CYP2C9): > 50 µM

CS(=O)(=O)Nc1c(Cl)cc(C(=O)N2CCOc3ccccc32)cc1Cl [Example 94, N-[2,6-dichloro-4-(2,3-dihydrobenzo[1,4]oxazine-4-carbonyl)phenyl]methanesulfonamide]
IC50 (URAT1 [1]): 0.1 to 1 µM
IC50 (CYP2C9): 6 µM

CCc1oc2ccccc2c1C(=O)c1cc(Br)c(O)c(Br)c1 [benzbromarone]
inhibitory action on CYP2C8 (CYP2C8): strong inhibitory action
uric acid uptake via URAT1 (URAT1 [2]): inhibited
inhibitory action on CYP2C19 (CYP2C19): strong inhibitory action
inhibitory action on CYP3A4 (CYP3A4): strong inhibitory action

CC1Cc2ccccc2N1C(=O)c1cc(Cl)c(O)c(Cl)c1 (stereo not drawn) [Example 76, (3,5-dichloro-4-hydroxyphenyl)-(2-methyl-2,3-dihydroindol-1-yl)-methanone]
IC50 (URAT1 [1]): 0.1 to 1 µM
IC50 (CYP2C9): 28 µM

CCCN(CCC)S(=O)(=O)c1ccc(C(=O)O)cc1 [probenecid]
uric acid uptake via URAT1 (URAT1 [2]): inhibited

O=C(c1cc(Cl)c(O)c(Cl)c1)N1CC[S+]([O-])c2ccccc21 (stereo not drawn) [Example 9, (3,5-dichloro-4-hydroxyphenyl)-(1-oxo-2,3-dihydro-1H-1λ^4-benzo[1,4]thiazin-4-yl)-methanone]
IC50 (URAT1 [1]): 1 to 3 µM
IC50 (CYP2C9): 39 µM

Nc1c(Cl)cc(C(=O)N2CCOc3ccccc32)cc1Cl [Example 28, (4-amino-3,5-dichlorophenyl)-(2,3-dihydrobenzo[1,4]oxazin-4-yl)-methanone]
IC50 (URAT1 [1]): 0.1 to 1 µM
IC50 (CYP2C9): 24 µM
